System: PPP (coagulation cascade)
Assay: PT, aPTT and TT studies on PPP (coagulation analyzer)
Type: biochemical
Conditions: rat PPP incubated 2 min with sample
Description: To confirm the role of third agent (Ca) (130) in the hemostatic composition, PT, a PTT and TT studies were performed using ST art 4, Diagnostica Stago, France. PPP was separated from anti-coagulated rat whole blood by centrifugation. PPP was incubated with the developed hemostatic composition for 2 min. For PT study, PPP from incubated sample was added to PT reagent in a cuvette placed in test area of coagulation analyzer and the time taken for PPP to clot was noted as PT. For a PTT study, PPP from incubated sample was further incubated with a PTT reagent after with cuvette was placed in test area and STA®-CaCl2 0.025M solution was added. Time taken for PPP to clot was noted as a PTT. For TT study, PPP from incubated sample was added to TT reagent in a cuvette placed in test area and the time taken for PPP to clot was noted as TT.

[Ca+2].[Cl-].[Cl-] [third agent, calcium chloride]
shorter: PT | TT | aPTT
